Data taken from patent US20200129435A1, “COMPOSITION FOR DELIVERING A THERAPEUTIC AGENT AND METHODS FOR MAKING AND USING” (UVic Industry Partnerships Inc., priority 2018, published 2020).
Where two headings read alike, the source gives them in different places.

Tests used:
[1] = oral administration is the main route; cited from earlier work
[2] = system: U-87 MG cells; assay: Cell count assay (hemocytometer, Trypan Blue); format: cell-based, human; conditions: 40 μM ATRA in cell medium
Description: U-87 MG cells were provided by ATCC® and cultured in Dulbecco's Modified Eagle Medium (DMEM), high glucose (Gibco™ by Life Technologies™, Carlsbad, USA, Catalog No.: 11965084) with 10% fetal bovine serum (Gibco™ by Life Technologies™, Carlsbad, USA, Catalog No.: 12483020), 1% penicillin-streptomycin (Invitrogen/Life Technologies™, Carlsbad, USA, Catalog No.: 15140122), and 4 μg/ml puromycin at 37° C. in an atmosphere of 5% CO2. Cells were counted by hemocytometer (Bright-Line™) with two-time dilution in Trypan Blue solution (Sigma-Aldrich, St Louis, USA, Catalog No.:93595).

[3] = system: U-87 MG cells; assay: Bright field microscopy of treated cells; format: cell-based, human; conditions: free ATRA = 40 μM
[4] = system: U-87 MG cells; assay: Apoptosis assay, propidium iodide flow cytometry, sub-G1 population; format: cell-based, human; conditions: free ATRA 40 μM; 48 hours
Description: To determine the level of apoptosis induced by ATRA apoptosis levels were detected using propidium iodide (PI) lysis buffer and flow cytometry. […] 1% sodium citrate (Bio Basic, Markham, Canada, Catalog No.: CB0035) and 0.1% Triton X-100 (Sigma-Aldrich, Sigma-Aldrich, St. Louis, USA Catalog No.: X100) were added to distilled water to prepare an initial solution for PI lysis buffer. The pH of the solution was adjusted to 7.4 and stored.
Prior to the apoptosis assay, RNase (Sigma-Aldrich, St. Louis, USA Catalog No.: R6513) and propidium iodide (Sigma-Aldrich, St. Louis, USA Catalog No.: P4864) was added to the initial solution to reach concentrations of 0.5 mg/ml and 40 μg/ml for RNase and propidium iodide, respectively. The cell media was collected and the cells were detached with EDTA (Caledon Laboratory Chemicals, Georgetown, Canada, Catalog No.: 3460-1-65) solution. The cell suspension was centrifuged at 4° C. in 1500 g for 5 minutes. Following, the cell pellets were washed twice with 500 μl of DPBS (Gibco™ by Life Technologies™, Carlsbad, USA, Catalog No.: 14190250) 4° C. The pellets were then lysed and stained with 250 μl of PI lysis buffer, and kept at room temperature in the dark for 15-30 minutes. […] Finally, the red channel was read on the flow cytometer to determine the sub-G1 population.

[5] = system: U-87 MG cells; assay: PrestoBlue cell viability assay (Example 1); format: cell-based, human
Description: Cell viability was assessed by PrestoBlue™ (Invitrogen/Life Technologies™, Carlsbad, USA, Catalog No.: A13262) assay. In this experiment, cells were first seeded in 6-well plates in a density of 6×10^4 cells/well. Viability tests were conducted at 48, 72, and 96 hours by replacing the cell media with 10% PrestoBlu™ reagent and incubating at 37° C. for 1 hour. Following, 100 μl of the incubated 10% PrestoBlue™ reagent from each well of the assay plates was transferred to a new well in a 96-well plate and read by a microplate reader (Infinite M200 Pro). Finally, viability was calculated by the following equation: […]

[6] = system: U87 glioblastoma cells; assay: PrestoBlue cell viability assay (Example 2); format: cell-based; conditions: Homo sapiens, 96-hours treatment, read-out: reduction of cell viability
Description: PrestoBlue™ cell viability assay was used to determine the effect of TMZ on the viability and proliferation of U87 glioblastoma cells. In this assay, metabolically active cells reduce a non-fluorescent compound (resazurin) in the PrestoBlue™ solution into a fluorescent molecule (resorufin).
In this study, U87 glioblastoma cells were seeded in a 96 well plate at 5,000 cells per well density, and a 24 well plate at 25,000 cells per well density to evaluate the cytotoxicity of free TMZ and one embodiment of the disclosed composition, respectively. The wells were then incubated for 24 hours at 37° C. with 95% relative humidity and 5% CO2. To determine the effect of the free TMZ, U87 glioblastoma cells were treated with different concentrations of the drug from 100 μM to 1000 μM in the cell medium. To study the effect of the disclosed hydrogel composition, the cells were treated with both microsphere-loaded (TMZ concentration of 100 μM) and blank meshes. Cells were incubated for 24, 48, 72, and 96 hours without changing the cell culture medium. […] Subsequently, the cell culture medium containing presto blue was transferred into a new well plate and the fluorescent intensity of each well was measured at excitation wavelength of 535 nm and emission wavelength of 615 nm by using a plate reader. Cell viability was then calculated by using equation 4 (Eq. 4): […]

Q: Which half-life [1] does the source give for CC1=C(/C=C/C(C)=C/C=C/C(C)=C/C(=O)O)C(C)(C)CCC1 [ATRA, all-trans retinoic acid] here?
A: about 1.5 hours

Q: And the “cell population relative to control condition” value ([2]; 48 hours)?
A: 86.0%±7.2%

Q: And the “cell population relative to control condition” value ([2]; 96 hours)?
A: 64.4%±8.6%

Q: What about the cell morphology [3] of the same compound?
A: cell shrinkage

Q: And the “apoptosis (sub-G1 population)” value [4]?
A: about 2%

Q: And the “cell viability compared to control” value ([5]; 20 μM in cell medium, 96 hours)?
A: 77%

Q: And the “cell viability compared to control” value ([5]; 40 μM in cell medium, 96 hours)?
A: 72%

Q: What about the viability at 20 µM ([5]; Homo sapiens, U-87 MG, 48 h, 20 μM in cell medium, 48 hours, read-out: cell viability compared to control) of the same compound?
A: 88.4%

Q: And the viability at 20 µM ([5]; Homo sapiens, U-87 MG, 96 h, 20 μM in cell medium, 96 hours, read-out: cell viability compared to control)?
A: 77.3%

Q: And the viability at 40 µM ([5]; Homo sapiens, U-87 MG, 96 h, 40 μM in cell medium, 96 hours, read-out: cell viability compared to control)?
A: 72.4%

Q: Which results are given for Cn1nnc2c(C(N)=O)ncn2c1=O [TMZ, Temozolomide]?
A: cytotoxicity at 100 µM ([6]; free TMZ 100 μM): 78%; cytotoxicity at 1000 µM ([6]; free TMZ 1000 μM): 95%
